In patent US4225610A, “Immunoactivators derived from amino thiazoles” (Pierre Fabre, S.A., priority 1977, dated 1980):
Values joined by “and” are separate entries in the source; they are usually repeats but may differ in a detail not shown here. Equal entries are not always repeated. “Also recorded” adds a separate entry of the source. Where two headings read alike, the source gives them in different places.

Experiments:
[1] = tested on: mice; assay: in vivo; format: in vivo
From the text: (§1) The acute toxicity after a single administration of the products per os was studied in mice.
(§2) The compounds were placed in suspension in a mixture of Tween 80™ and distilled water. […] Exper.

[2] = in vivo; format: in vivo; conditions: mouse, in vivo, po; mice, per os, single administration, 7 days
From the text: as §1, §2

[3] = Solubility
[4] = tested on: Delayed Hypersensitivity Pleurisy to Bordetella pertussis; assay: Pleurisy of delayed hypersensitivity to Bordetella pertussis in rats after chronic treatment; format: in vivo; conditions: for Action on the volume of exudate / Action on the number of mononuclears / Action on the number of polynuclears / Action on the total number of leukocytes: 5 mg/kg p.o.; for Delayed hypersensitivity pleural inflammation (in words) / Action compared with levamisole (in words): orally, chronic treatment, 5 mg/kg/administration; for Action compared with levamisole (in words): both treatment procedures
Procedure: II--Action on Pleurisy of Delayed Hypersensitivity to Bordetella pertussis in Rats After Chronic Treatment […]
Male rats weighing 280-320 g are used. The suspension of Bordetella pertussis used is the pertussis vaccine of the Pasteur Institute (5×10^9 killed bacilli per ml). The Bordetella pertussis suspension is mixed (V/V: 50/50) with Freund's complete adjuvant. 0.2 ml of this mixture is injected intramuscularly into each thigh of the rat.
6 days later, 0.1 ml of the Bordetella pertussis suspension is injected into the pleural cavity. 48 hours later, the pleural exudate formed is removed and measured. The total number of leukocytes and the number of mononuclears and polynuclears of the exudate are determined.
The products studied were administered chronically in accordance with two procedures:
Procedure 1: The treatment commences on the day of the sensitization and continues at the rate of one administration per day until the challenge injection. On the day of the latter the compounds are given twice: one administration before and one after the intrapleural injection of the antigen. The animals are treated a last time 24 hours later.
Procedure 2: The treatment commences three weeks before the sensitization. During these three weeks, the products are given at the rate of 5 times per week. The treatment is then continued as indicated above in Procedure 1.

[5] = Chronic toxicity per os for two months in rats; conditions: rat, in vivo, po, read-out: Dose not resulting in any toxic phenomenon
[6] = tested on: cutaneous delayed hypersensitivity reaction to PPD; format: in vivo, albino guinea pigs
[7] = 200 mg/kg per os, 5 mice per lot
[8] = 1000 mg/kg per os, 5 mice per lot

| SMILES | LD50 at 168 h [2] | Solubility in water [3] | Mortality at the end of 7 days [1, 8] | Solubility in DMA [3] | Solubility in methyl pyrrolidone [3] | further results |
| --- | --- | --- | --- | --- | --- | --- |
| Nc1nc(-c2ccccc2)cs1 [F 1653, 4-phenyl 2-amino thiazole] | 140 mg/kg | insoluble |  |  |  | Mortality at the end of 7 days ([1]; 100 mg/kg per os, 5 mice per lot): 0; Mortality at the end of 7 days [1, 7]: 5; Solubility in dimethyl pyrrolidone ([3]; dimethyl pyrrolidone): 20%; Solubility in ethanol [3]: 1% |
| Nc1nc(-c2ccc(Cl)cc2)cs1 [F 1654, 4-Parachloro-phenyl 2-amino thiazole] | 300 mg/kg | insoluble |  |  |  | Action on the volume of exudate ([4]; Treatment procedure 2): -41%; Delayed hypersensitivity pleural inflammation (in words) [4]: reduce the delayed hypersensitivity pleural inflammation; Action compared with levamisole (in words) [4]: superior to that of levamisole; Mortality at the end of 7 days [1, 7]: 0; Mortality at the end of 7 days ([1]; 300 mg/kg per os, 5 mice per lot): 3; Mortality at the end of 7 days ([1]; 500 mg/kg per os, 5 mice per lot): 5; Solubility in ethanol [3]: 15% |
| CCCCCCCCCCCC(=O)Nc1nc(-c2ccccc2)cs1 [F 1655] | > 1000 mg/kg | insoluble | 0 | 25% | 25% |  |
| CCCCCCCCCCCCCCCCCC(=O)Nc1nc(-c2ccccc2)cs1 [F 1656, 4-phenyl 2-stearamido thiazole] | > 1000 mg/kg | insoluble | 0 | 20% | 20% |  |
| O=C(O)CCC(=O)Nc1nc(-c2ccccc2)cs1 [F 1657, N(4-phenyl 2-thiazolyl) succinamic acid] | > 1000 mg/kg | insoluble | 0 | 20% | 25% |  |
| CCOC(=O)Nc1nc(-c2ccccc2)cs1 [F 1658, 4-phenyl 2-(ethoxycarboxamido) thiazole] |  | insoluble |  | 25% | 25% |  |
| O=C(Nc1nc(-c2ccccc2)cs1)Oc1ccccc1 [F 1659, 4-phenyl 2-phenoxy carbamoyl thiazole] | > 1000 mg/kg | insoluble | 0 | 4% | 3% |  |
| O=C(Nc1nc(-c2ccc(Cl)cc2)cs1)OCC(Cl)(Cl)Cl [F 1660, 4-parachlorophenyl 2-(2'-2'-2'-trichloroethoxycarbamido) thiazole] | > 1000 mg/kg | insoluble | 0 | 20% | 20% |  |
| O=C(O)CCC(=O)Nc1nc(-c2ccc(Cl)cc2)cs1 [F 1683, N(4-parachlorophenyl 2-thiazolyl) succinamic acid] | > 1000 mg/kg | insoluble | 0 | 20% | 20% |  |
| O=C(Nc1nc(-c2ccccc2)cs1)c1cccnc1 [F 1684, N(4-phenyl 2-thiazolyl) nicotinamide] | > 1000 mg/kg | insoluble | 0 | 5% | 5% |  |
| O=C(Nc1nc(-c2ccc(Cl)cc2)cs1)c1cccnc1 [F 1685, N(4-parachlorophenyl 2-thiazolyl) nicotinamide] | > 1000 mg/kg | insoluble | 0 | 20% | 20% |  |
| O=C(Nc1nc(-c2ccccc2)cs1)OCC(Cl)(Cl)Cl [F 1686, 4-phenyl-2-(2'-2'-2'-trichloroethoxycarboxamido) thiazole] | > 1000 mg/kg | insoluble |  | 25% | 20% | NOAEL at 1460 h [5]: ≤ 30 mg/kg/day; Action on the number of mononuclears ([4]; Treatment procedure 1): -21%; Action on the number of polynuclears ([4]; Treatment procedure 1): -16%; Action on the total number of leukocytes ([4]; Treatment procedure 1): -19%; Action on the volume of exudate ([4]; Treatment procedure 1): -35%; Action on the number of mononuclears ([4]; Treatment procedure 2): -29%; Action on the number of polynuclears ([4]; Treatment procedure 2): -6%; Action on the total number of leukocytes ([4]; Treatment procedure 2): -22%; Action on the volume of exudate ([4]; Treatment procedure 2, 5 mg/kg): -50% and -42%; Delayed hypersensitivity pleural inflammation (in words) [4]: reduce the delayed hypersensitivity pleural inflammation; Action compared with levamisole (in words) [4]: superior to that of levamisole; Effect on the response to PPD (in words) ([6]; […], response of low intensity in controls (two to three weeks)): stimulate the response; Effect on the response to PPD (in words) ([6]; after 5 and 6 weeks): do not modify it significantly any longer; Stimulation of the reaction to the PPD (in words) ([6]; dependence on immune state): does not stimulate the reaction to the PPD except when the guinea pigs are in a state of hypoimmunization; Mortality at the end of 7 days ([1]; 1000 mg/kg per os, 10 mice per lot): 0; Solubility in ethanol [3]: 3% |
| O=C(Nc1nc(-c2ccc(Cl)cc2)cs1)Oc1ccccc1 [F 1687] | > 1000 mg/kg | insoluble | 0 | 5% | 5% |  |
| c1ccc([C@H]2CN3CCSC3=N2)cc1 [Levamisole, L-tetramisole, reference compound] |  |  |  |  |  | Action on the number of mononuclears ([4]; Treatment procedure 1): -11%; Action on the number of polynuclears ([4]; Treatment procedure 1): -9%; Action on the total number of leukocytes ([4]; Treatment procedure 1): -10%; Action on the volume of exudate ([4]; Treatment procedure 1): -22%; Action on the number of mononuclears ([4]; Treatment procedure 2): -17%; Action on the number of polynuclears ([4]; Treatment procedure 2): -7%; Action on the total number of leukocytes ([4]; Treatment procedure 2): -13%; Action on the volume of exudate ([4]; Treatment procedure 2): -23%; Effect on the response to PPD (in words) ([6]; guinea pig, in vivo): to a definitely lesser degree stimulate the response; also recorded: do not modify it significantly any longer |
